This is an account of results in patent US20190359609A1, “BICYCLIC OGA INHIBITOR COMPOUNDS” (Janssen Pharmaceutica NV, priority 2016, published 2019).

The target of data set [1] is T1, recombinant human Meningioma Expressed Antigen 5 (MGEA5), also referred to as O-GlcNAcase (OGA) (Homo sapiens, UniProt O60502).
T1 construct: Full length OGA enzyme was purchased at OriGene (cat # TP322411); purchased OriGene TP322411
T1 sequence (O60502 1-916): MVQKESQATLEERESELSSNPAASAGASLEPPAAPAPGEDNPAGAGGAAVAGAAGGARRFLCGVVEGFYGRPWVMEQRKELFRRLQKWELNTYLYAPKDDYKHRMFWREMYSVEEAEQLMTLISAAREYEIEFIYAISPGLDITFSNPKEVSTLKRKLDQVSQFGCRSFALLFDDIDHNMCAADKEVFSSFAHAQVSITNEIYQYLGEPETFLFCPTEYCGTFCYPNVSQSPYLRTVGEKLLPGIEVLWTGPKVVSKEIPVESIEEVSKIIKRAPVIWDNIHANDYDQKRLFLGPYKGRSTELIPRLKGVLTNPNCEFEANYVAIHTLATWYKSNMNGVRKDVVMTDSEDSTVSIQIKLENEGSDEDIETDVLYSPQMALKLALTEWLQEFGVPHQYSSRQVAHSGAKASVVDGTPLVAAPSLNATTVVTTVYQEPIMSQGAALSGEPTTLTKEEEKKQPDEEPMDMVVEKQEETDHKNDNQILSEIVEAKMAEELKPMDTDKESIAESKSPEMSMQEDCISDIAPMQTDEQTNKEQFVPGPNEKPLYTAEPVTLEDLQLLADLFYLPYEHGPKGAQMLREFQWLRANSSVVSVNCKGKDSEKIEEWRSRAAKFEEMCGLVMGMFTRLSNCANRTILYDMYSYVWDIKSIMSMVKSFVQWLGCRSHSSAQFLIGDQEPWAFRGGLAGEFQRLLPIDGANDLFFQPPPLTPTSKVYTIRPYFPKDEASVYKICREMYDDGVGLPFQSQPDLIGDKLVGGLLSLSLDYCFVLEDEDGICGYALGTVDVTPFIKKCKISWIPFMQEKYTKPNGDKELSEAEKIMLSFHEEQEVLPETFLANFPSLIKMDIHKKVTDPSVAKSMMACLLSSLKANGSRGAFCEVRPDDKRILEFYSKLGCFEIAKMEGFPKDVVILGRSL
Description: OGA biochemical assay: inhibition of FM-GlcNAc hydrolysis, fluorescence (protocol A 10 nM OGA, 1 h; protocol B 2 nM OGA, 6 h). As to conditions: for IC50: read-out: Enzymatic hOGA, pIC50 (converted); for Emax: read-out: Enzymatic Emax (%). The source says:
The assay is based on the inhibition of the hydrolysis of fluorescein mono-B-D-N-Acetyl-Glucosamine (FM-GlcNAc) (Mariappa et al. 2015, Biochem J 470:255) by the recombinant human Meningioma Expressed Antigen 5 (MGEA5), also referred to as 0-GlcNAcase (OGA). The hydrolysis FM-GlcNAc (Marker Gene technologies, cat # M1485) results in the formation of β-D-N-glucosamineacetate and fluorescein. The fluorescence of the latter can be measured at excitation wavelength 485 nm and emission wavelength 538 nm. An increase in enzyme activity results in an increase in fluorescence signal. Full length OGA enzyme was purchased at OriGene (cat # TP322411). The enzyme was stored in 25 mM Tris.HCl, pH 7.3, 100 mM glycine, 10% glycerol at −20° C. Thiamet G and GlcNAcStatin were tested as reference compounds (Yuzwa et al. 2008 Nature Chemical Biology 4:483; Yuzwa et al. 2012 Nature Chemical Biology 8:393). The assay was performed in 200 mM Citrate/phosphate buffer supplemented with 0.005% Tween-20. 35.6 g Na2HPO4 2 H2O (Sigma, # C0759) were dissolved in 1 L water to obtain a 200 mM solution. 19.2 g citric acid (Merck, #1.06580) was dissolved in 1 L water to obtain a 100 mM solution. pH of the sodiumphosphate solution was adjusted with the citric acid solution to 7.2. The buffer to stop the reaction consists of a 500 mM Carbonate buffer, pH 11.0. 734 mg FM-GlcNAc were dissolved in 5.48 mL DMSO to obtain a 250 mM solution and was stored at −20° C. OGA was used at a 10 nM (protocol A) or 2 nM (protocol B) concentration and FM-GlcNAc at a 100 uM final concentration. Dilutions were prepared in assay buffer.
50 nl of a compound dissolved in DMSO was dispensed on Black Proxiplate™ 384 Plus Assay plates (Perkin Elmer, #6008269) and 3 μl fl-OGA enzyme mix added subsequently. Plates were pre-incubated for 60 min at room temperature and then 2 μl FM-GlcNAc substrate mix added. […] Plates were briefly centrifuged for 1 min at 1000 rpm and incubate at room temperature for 1 h (10 nM OGA, protocol A) or 6 h (2 nM OGA, protocol B). To stop the reaction 5 μl STOP buffer were added and plates centrifuge again 1 min at 1000 rpm. Fluorescence was quantified in the Thermo Scientific Fluoroskan Ascent or the PerkinElmer EnVision with excitation wavelength 485 nm and emission wavelength 538 nm.
For analysis a best-fit curve is fitted by a minimum sum of squares method. From this an IC50 value and Hill coefficient was obtained. High control (no inhibitor) and low control (saturating concentrations of standard inhibitor) were used to define the minimum and maximum values.

The target of data set [2] is T2, OGA (Homo sapiens, UniProt O60502).
T2 construct: endogenous in cells; host or cells: HEK293 cells inducible for P301L mutant human Tau (2N4R)
T2 sequence (O60502 1-916): T1 sequence (O60502 1-916)
The experiment in a line: OGA cellular assay: ICC detection of O-GlcNAcylated proteins in HEK293 cells inducible for P301L mutant human Tau. Format: cell-based. The following applies: 6 hours incubation; for EC50: read-out: Cellular hOGA, pEC50 (converted). As to the method:
HEK293 cells inducible for P301L mutant human Tau (isoform 2N4R) were established at Janssen. Thiamet-G was used for both plate validation (high control) and as reference compound (reference EC50 assay validation). OGA inhibition is evaluated through the immunocytochemical (ICC) detection of O-GlcNAcylated proteins by the use of a monoclonal antibody (CTD110.6; Cell Signaling, #9875) detecting O-GlcNAcylated residues as previously described (Dorfmueller et al. 2010 Chemistry & biology, 17:1250).
Inhibition of OGA will result in an increase of 0-GlcNAcylated protein levels resulting in an increased signal in the experiment. Cell nuclei are stained with Hoechst to give a cell culture quality control and a rough estimate of immediate compounds toxicity, if any. ICC pictures are imaged with a Perkin Elmer Opera Phenix plate microscope and quantified with the provided software Perkin Elmer Harmony 4.1.
Cells were propagated in DMEM high Glucose (Sigma, #D5796) following standard procedures. 2 days before the cell assay cells are split, counted and seeded in Poly-D-Lysine (PDL) coated 96-wells (Greiner, #655946) plate at a cell density of 12,000 cells per cm^2 (4,000 cells per well) in 100 μl of Assay Medium (Low Glucose medium is used to reduce basal levels of GlcNAcylation) (Park et al. 2014 The Journal of biological chemistry 289:13519). At the day of compound test medium from assay plates was removed and replenished with 90 μl of fresh Assay Medium. 10 μl of compounds at a 10fold final concentration were added to the wells. Plates were centrifuged shortly before incubation in the cell incubator for 6 hours. DMSO concentration was set to 0.2%. Medium is discarded by applying vacuum. For staining of cells medium was removed and cells washed once with 100 μl D-PBS (Sigma, #D8537). From next step onwards unless other stated assay volume was always 50 μl and incubation was performed without agitation and at room temperature. Cells were fixed in 50 μl of a 4% paraformaldehyde (PFA, Alpha aesar, #043368) PBS solution for 15 minutes at room temperature. […] Before analysis samples were washed 2 times manually for 5 minutes in ICC base buffer.
Imaging is performed using Perkin Elmer Phenix Opera using a water 20× objective and recording 9 fields per well. Intensity readout at 488 nm is used as a measure of O-GlcNAcylation level of total proteins in wells. To assess potential toxicity of compounds nuclei were counted using the Hoechst staining. IC50-values are calculated using parametric non-linear regression model fitting. As a maximum inhibition Thiamet G at a 200 uM concentration is present on each plate. In addition, a concentration response of Thiamet G is calculated on each plate.

Data set [3] addresses PDE2 (Homo sapiens, UniProt O00408). Description: PDE2 inhibitory activity (protocol as described in WO2017/076900, page 28). In kind it is biochemical. As to conditions: screening concentration of 10 μM; read-out: PDE2 inhibitory activity, % effect.
Where [4] appears, read: Enzymatic protocol A (10 nM OGA, 1 h).
The mark [5] stands for this setting: Enzymatic protocol B (2 nM OGA, 6 h).

Counter-ions that a name gives are not always drawn. Like-named read-outs stand apart in the source and are kept apart here.

PDE2, sequence (O00408 whole entry): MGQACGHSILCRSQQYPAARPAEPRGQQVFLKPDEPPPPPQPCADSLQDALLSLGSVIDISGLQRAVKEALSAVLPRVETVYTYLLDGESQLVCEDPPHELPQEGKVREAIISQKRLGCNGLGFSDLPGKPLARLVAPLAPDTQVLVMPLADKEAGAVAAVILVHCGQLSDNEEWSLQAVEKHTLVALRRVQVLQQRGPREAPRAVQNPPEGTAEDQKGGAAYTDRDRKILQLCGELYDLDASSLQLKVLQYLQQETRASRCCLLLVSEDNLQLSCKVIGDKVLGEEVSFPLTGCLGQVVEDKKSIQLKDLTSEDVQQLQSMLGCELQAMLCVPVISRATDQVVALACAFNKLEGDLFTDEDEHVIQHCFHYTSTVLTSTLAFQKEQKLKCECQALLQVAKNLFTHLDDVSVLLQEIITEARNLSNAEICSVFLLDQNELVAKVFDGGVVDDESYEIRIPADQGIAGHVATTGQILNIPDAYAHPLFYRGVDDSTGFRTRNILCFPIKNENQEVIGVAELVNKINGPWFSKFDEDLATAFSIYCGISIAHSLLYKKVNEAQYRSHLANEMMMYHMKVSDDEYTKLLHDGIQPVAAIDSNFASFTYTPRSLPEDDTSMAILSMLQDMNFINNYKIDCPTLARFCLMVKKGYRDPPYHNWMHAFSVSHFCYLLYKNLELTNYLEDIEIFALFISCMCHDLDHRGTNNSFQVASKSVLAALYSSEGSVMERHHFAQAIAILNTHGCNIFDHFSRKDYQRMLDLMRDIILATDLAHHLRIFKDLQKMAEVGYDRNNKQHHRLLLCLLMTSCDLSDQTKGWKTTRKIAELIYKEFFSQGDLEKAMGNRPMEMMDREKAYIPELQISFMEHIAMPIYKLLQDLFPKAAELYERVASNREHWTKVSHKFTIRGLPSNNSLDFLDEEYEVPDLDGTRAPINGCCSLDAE

`c1cnc2cc(C3CCCN(Cc4ccc5c(c4)OCCO5)C3)[nH]c2c1` (stereo not shown) (as salt: HCl) [Compound 39] displayed a melting point of 178.2 °C.

Regarding `CC(=O)Nc1ncc(CN2CCCC(c3nc4ncccc4[nH]3)C2)s1` (single isomer, unassigned) [Compound 18], the melting point came out at 223.94 °C. In data set [1] (setting [4]), the “Enzymatic Emax (%)” value amounted to 55.6% and the IC50 was 24500 nM.

For the compound `CC(=O)Nc1ncc(CN2CCCC(c3nc4ncccc4[nH]3)C2)s1` (single isomer, unassigned) [Compound 19], the melting point came to 228.2 °C. In data set [2], the Emax stood at 109% and the EC50 is 851 nM. For the same compound, in data set [1] (setting [4]), the “Enzymatic Emax (%)” value worked out at 102% and the IC50 is 148 nM.

With `CC(=O)Nc1ncc(S(=O)(=O)N2CCCC(c3cc4ncccc4[nH]3)C2)s1` (stereo not shown) [Compound 2], the inhibition at 10 µM in data set [3] turned out to be 33.1%. In addition, in data set [1] (setting [4]), the Emax is 102% and the IC50 is 263 nM.

`CCC(=O)Nc1ncc(CN2CCCC(c3cc4ncccc4[nH]3)C2)s1` (stereo not shown) [Compound 9]: the melting point came out at 235 °C. For the same compound, in data set [1] (setting [4]), the Emax was 98% and the IC50 is 204 nM.

Regarding `c1cnc2cc(C3CCCN(Cc4ccc5c(c4)OCCO5)C3)[nH]c2c1` (stereo not shown) [Compound 39], in data set [2], the Emax was determined as 90.3% and the EC50 was 3630 nM. In addition, in data set [1] (setting [4]), the Emax was found to be 98.2% and the IC50 is 617 nM.

Turning to `CC(c1ccc2c(c1)OCCO2)N1CCCC(c2cc3ncccc3n2C)C1` (stereo not shown) [Compound 40], in data set [2], the Emax was 75.1% and the EC50 was 955 nM. Moreover, in data set [1] (setting [5]), the Emax is 102% and the IC50 was 61.7 nM.

`O=C(CN1CCCC(c2cc3ncccc3[nH]2)C1)N1CCCC1` (stereo not shown) [Compound 49]: the melting point came to 179.9 °C. Moreover, in data set [2], the maximal effect (Emax) was found to be 7.2% and the EC50 was > 10000 nM. Moreover, in data set [1] (setting [5]), the Emax was 80.5% and the IC50 is 2630 nM.

`CC(=O)Nc1ncc(CN2CC[C@@H](Cc3cc4ncccc4n3C)C2)s1` [Compound 58]: the melting point turned out to be 187.16 °C. In data set [1] (setting [5]), the Emax was found to be 102% and the IC50 was 2.69 nM.

On to `CC(=O)Nc1ncc(CN2CC[C@H](Cc3cc4ncccc4n3C)C2)s1` [Compound 59], for which the melting point is 190.09 °C. Also, in data set [1] (setting [5]), the Emax was found to be 99.7% and the IC50 was 1.17 nM.

`CC(=O)Nc1ncc(CN2CCC(Cc3cc4cccnc4n3C)C2)s1` (stereo not shown) [Compound 60] displayed a melting point of 153.79 °C. In data set [1] (setting [5]), the Emax was 99.2% and the IC50 is 9.33 nM.

Compound `CC(=O)Nc1ncc(CN2CCC(Cc3cc4cnccc4n3C)C2)s1` (stereo not shown) [Compound 61] came in with a melting point of 195.06 °C. In data set [1] (setting [5]), the Emax was found to be 100% and the IC50 is 1.51 nM.
